The text below walks through data of US11820766B2, “Monoacylglycerol lipase modulators” (Janssen Pharmaceutica NV, priority 2018, dated 2023).

SMILES strings stand for the structures.

The first assay has as its target T1, human MGL from HeLa cells (Homo sapiens, UniProt Q99685).
T1 construct: combining endogenously expressed MGL from HeLa cells with test compounds; endogenous in cells; host or cells: HeLa cells / cell homogenates
T1 sequence (Q99685 1-303): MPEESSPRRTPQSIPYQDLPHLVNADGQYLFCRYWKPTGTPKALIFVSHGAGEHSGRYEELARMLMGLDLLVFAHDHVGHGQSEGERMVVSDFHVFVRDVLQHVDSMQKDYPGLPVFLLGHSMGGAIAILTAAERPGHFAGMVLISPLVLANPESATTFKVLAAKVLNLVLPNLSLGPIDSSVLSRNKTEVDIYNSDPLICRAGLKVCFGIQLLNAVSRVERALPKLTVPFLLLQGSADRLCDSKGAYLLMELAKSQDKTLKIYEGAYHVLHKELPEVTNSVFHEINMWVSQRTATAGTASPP
The assay can be described thus: In vitro MGL activity assay: [glycerol-1,3-3H]-oleyl glycerol cleavage by MGL from HeLa cells. The format is biochemical. The conditions noted are these: 300 nM [Glycerol-1,3-3H]-oleyl glycerol, one hour. The source says: MGL is the predominant hydrolase in HeLa cells/cell homogenates.
A word on the IC50: it is the point on the concentration scale where inhibition reaches its midpoint. Higher therefore signals lower potency. With `C[C@H]1c2nn(C)c(-c3ccc(Cl)c(F)c3)c2CCN1C(=O)c1ccc2ncccc2c1` [Example 504, [(7S)-3-(4-Chloro-3-fluoro-phenyl)-2,7-dimethyl-5,7-dihydro-4H-pyrazolo[3,4-c]pyridin-6-yl]-(6-quinolyl)methanone], the IC50 was found to be 25.3 nM.

Compound `Cc1cccc2ncc(C(=O)N3CCc4c(nn(C)c4-c4cc(F)c(F)c(F)c4)[C@@H]3C)n12` [Example 401, [(7S)-2,7-Dimethyl-3-(3,4,5-trifluorophenyl)-5,7-dihydro-4H-pyrazolo[3,4-c]pyridin-6-yl]-(5-methylimidazo[1,2-a]pyridin-3-yl)methanone] gave an IC50 of 14.5 nM.

In the case of `C[C@H]1c2nn(C)c(-c3cc(F)c(F)c(F)c3)c2CCN1C(=O)c1c[nH]c2ncc(F)cc12` [Example 374, [(7S)-2,7-Dimethyl-3-(3,4,5-trifluorophenyl)-5,7-dihydro-4H-pyrazolo[3,4-c]pyridin-6-yl]-(5-fluoro-1H-pyrrolo[2,3-b]pyridin-3-yl)methanone], the IC50 stood at 21 nM.

As to `C[C@H]1c2nn(C)c(-c3cc(F)c(F)c(F)c3)c2CCN1C(=O)c1cnc2ncccc2c1` [Example 490, [(7S)-2,7-Dimethyl-3-(3,4,5-trifluorophenyl)-5,7-dihydro-4H-pyrazolo[3,4-c]pyridin-6-yl]-(1,8-naphthyridin-3-yl)methanone], the IC50 was 226 nM.

Compound `COc1cncc(F)c1C(=O)N1CCc2c(nn(C)c2-c2cc(F)c(F)c(F)c2)[C@@H]1C` [Example 607, [(7S)-2,7-Dimethyl-3-(3,4,5-trifluorophenyl)-5,7-dihydro-4H-pyrazolo[3,4-c]pyridin-6-yl]-(3-fluoro-5-methoxy-4-pyridyl)methanone] came in with an IC50 of 18.2 nM.

As for `C[C@H]1c2nn(C)c(-c3ccc4occc4c3)c2CCN1C(=O)c1ccc2ncccc2c1` [Example 533, [(7S)-3-(Benzofuran-5-yl)-2,7-dimethyl-5,7-dihydro-4H-pyrazolo[3,4-c]pyridin-6-yl]-(6-quinolyl)methanone], inhibition was half-maximal at 17.4 nM (IC50).

In the case of `C[C@H]1c2nn(C)c(-c3cc(F)c(F)c(F)c3)c2CCN1C(=O)c1c(F)cccc1-n1cccn1` [Example 603, [(7S)-2,7-Dimethyl-3-(3,4,5-trifluorophenyl)-5,7-dihydro-4H-pyrazolo[3,4-c]pyridin-6-yl]-(2-fluoro-6-pyrazol-1-yl-phenyl)methanone], the IC50 came out at 114 nM.

As to `C[C@H]1c2nn(C)c(-c3cc(F)c(F)c(F)c3)c2CCN1C(=O)c1cncc2cn[nH]c12` [Example 434, [(7S)-2,7-Dimethyl-3-(3,4,5-trifluorophenyl)-5,7-dihydro-4H-pyrazolo[3,4-c]pyridin-6-yl]-(1H-pyrazolo[4,3-c]pyridin-7-yl)methanone], the IC50 was 277 nM.

Compound `C[C@H]1c2nn(C)c(-c3cc(F)c(F)c(F)c3)c2CCN1C(=O)c1cnn2cccnc12` [Example 448, [(7S)-2,7-Dimethyl-3-(3,4,5-trifluorophenyl)-5,7-dihydro-4H-pyrazolo[3,4-c]pyridin-6-yl]-pyrazolo[1,5-a]pyrimidin-3-yl-methanone] yielded an IC50 of 113 nM.

`C[C@H]1c2nn(C)c(-c3cc(F)c(F)c(F)c3)c2CCN1C(=O)c1nccc2ncccc12` [Example 486] showed an IC50 of 13.7 nM.

With `CC1c2nn(C34CC(C3)C4)c(-c3ccccc3)c2CCN1C(=O)c1cnn(C)c1C1CC1` (single isomer, unassigned) [Example 342, (S*)-(2-(Bicyclo[1.1.1]pentan-1-yl)-7-methyl-3-phenyl-2,4,5,7-tetrahydro-6H-pyrazolo[3,4-c]pyridin-6-yl)(5-cyclopropyl-1-methyl-1H-pyrazol-4-yl)methanone], the IC50 amounted to 255 nM.

For the compound `C[C@H]1c2nn(C)c(-c3cc(F)c(F)c(F)c3)c2CCN1C(=O)c1c(F)cnc2[nH]ccc12` [Example 369, [(7S)-2,7-Dimethyl-3-(3,4,5-trifluorophenyl)-5,7-dihydro-4H-pyrazolo[3,4-c]pyridin-6-yl]-(5-fluoro-1H-pyrrolo[2,3-b]pyridin-4-yl)methanone], the IC50 amounted to 1.88 nM.

The same assay, now with this note: 300 nM [Glycerol-1,3-3H]-oleyl glycerol, one hour incubation.
For the compound `C[C@H]1c2nn(C)c(-c3cc(Cl)cc(Cl)c3)c2CCN1C(=O)c1nn(C)c2ncccc12` [Example 173, (S)-(3-(3,5-Dichlorophenyl)-2,7-dimethyl-2,4,5,7-tetrahydro-6H-pyrazolo[3,4-c]pyridin-6-yl)(1-methyl-1H-pyrazolo[3,4-b]pyridin-3-yl)methanone], the half-maximal inhibitory concentration (IC50) was found to be 18 nM.

Compound `C[C@H]1c2nn(C)c(-c3cc(F)cc(F)c3)c2CCN1C(=O)c1cccc(OCCF)c1Cl` [Example 145, [2-Chloro-3-(2-fluoroethoxy)phenyl]-[(7S)-3-(3,5-difluorophenyl)-2,7-dimethyl-5,7-dihydro-4H-pyrazolo[3,4-c]pyridin-6-yl]methanone] came in with an IC50 of 2.13 nM.

Consider `COc1ccnc(C(=O)N2CCc3c(nn(C)c3-c3cc(F)c(F)c(F)c3)[C@@H]2C)c1Cl` [Example 317, (3-Chloro-4-methoxy-2-pyridyl)-[(7S)-2,7-dimethyl-3-(3,4,5-trifluorophenyl)-5,7-dihydro-4H-pyrazolo[3,4-c]pyridin-6-yl]methanone], for which 30.1 nM corresponded to half-maximal inhibition (IC50).

For `C[C@H]1c2nn(C)c(-c3cc(F)cc(Cl)c3)c2CCN1C(=O)c1ccc2ncccc2c1` [Example 178, (S)-(3-(3-Chloro-5-fluorophenyl)-2,7-dimethyl-2,4,5,7-tetrahydro-6H-pyrazolo[3,4-c]pyridin-6-yl)(quinolin-6-yl)methanone], it took 4.16 nM to reach half-maximal inhibition (IC50).

Turning to `Cc1nc(C(=O)N2CCc3c(nn(C)c3-c3cc(F)c(F)c(F)c3)[C@@H]2C)nn1-c1ccc(F)cc1` [Example 322, [(7S)-2,7-Dimethyl-3-(3,4,5-trifluorophenyl)-5,7-dihydro-4H-pyrazolo[3,4-c]pyridin-6-yl]-[1-(4-fluorophenyl)-5-methyl-1,2,4-triazol-3-yl]methanone], the IC50 was found to be 34.6 nM.

On to `CC1c2nn(C(F)(F)F)c(-c3cc(F)cc(F)c3)c2CCN1C(=O)c1ccc2ncccc2c1` (centres unmarked) [Example 156, (3-(3,5-Difluorophenyl)-7-methyl-2-(trifluoromethyl)-2,4,5,7-tetrahydro-6H-pyrazolo[3,4-c]pyridin-6-yl)(quinolin-6-yl)methanone], for which the IC50 was 17 nM.

For `CNC(=O)c1cccc(C(=O)N2CCc3c(nn(C)c3-c3cc(F)c(F)c(F)c3)[C@@H]2C)c1` [Example 266, 3-[(7S)-2,7-Dimethyl-3-(3,4,5-trifluorophenyl)-5,7-dihydro-4H-pyrazolo[3,4-c]pyridine-6-carbonyl]-N-methyl-benzamide], the midpoint of inhibition, the IC50, lay at 132 nM.

As for `C[C@H]1c2nn(C)c(-c3cc(F)cc(F)c3)c2CCN1C(=O)c1ccc2ncccc2n1` [Example 170], the IC50 stood at 23.2 nM.

For the compound `CC1c2nn(C)c(-c3cc(F)cc(F)c3)c2CCN1C(=O)c1ccc2ccncc2c1` (centres unmarked) [Example 161, (3-(3,5-Difluorophenyl)-2,7-dimethyl-2,4,5,7-tetrahydro-6H-pyrazolo[3,4-c]pyridin-6-yl)(isoquinolin-7-yl)methanone], the IC50 is 260 nM.

The compound `C[C@H]1c2nn(C)c(-c3cc(F)c(F)c(F)c3)c2CCN1C(=O)c1ccnc2c1ccn2C` [Example 225, (S)-(2,7-Dimethyl-3-(3,4,5-trifluorophenyl)-2,4,5,7-tetrahydro-6H-pyrazolo[3,4-c]pyridin-6-yl)(1-methyl-1H-pyrrolo[2,3-b]pyridin-4-yl)methanone] returned an IC50 of 0.64 nM.

Take `COc1cccc(C(F)(F)F)c1C(=O)N1CCc2c(nn(C)c2-c2ccccc2)C1` [Example 5, (2-Methoxy-6-(trifluoromethyl)phenyl)(2-methyl-3-phenyl-2,4,5,7-tetrahydro-6H-pyrazolo[3,4-c]pyridin-6-yl)methanone]: the IC50 is above 10000 nM.

As to `COc1cc(C(=O)N2CCc3c(nn(C)c3-c3cc(F)c(F)c(F)c3)[C@@H]2C)ccn1` [Example 312, [(7S)-2,7-Dimethyl-3-(3,4,5-trifluorophenyl)-5,7-dihydro-4H-pyrazolo[3,4-c]pyridin-6-yl]-(2-methoxy-4-pyridyl)methanone], the midpoint of inhibition, the IC50, lay at 81.7 nM.

With `COc1cc(C(=O)N2CCc3c(nn(C)c3-c3cc(F)c(F)c(F)c3)[C@@H]2C)cnc1C` [Example 310, [(7S)-2,7-Dimethyl-3-(3,4,5-trifluorophenyl)-5,7-dihydro-4H-pyrazolo[3,4-c]pyridin-6-yl]-(5-methoxy-6-methyl-3-pyridyl)methanone], it took 96.3 nM to reach half-maximal inhibition (IC50).

`C[C@H]1c2nn(C)c(-c3cc(F)c(F)c(F)c3)c2CCN1C(=O)c1ccn2nccc2c1` [Example 228, (S)-(2,7-Dimethyl-3-(3,4,5-trifluorophenyl)-2,4,5,7-tetrahydro-6H-pyrazolo[3,4-c]pyridin-6-yl)(pyrazolo[1,5-a]pyridin-5-yl)methanone]: the concentration for half-maximal inhibition (IC50) is 48.1 nM.

For `C[C@H]1c2nn(C)c(-c3cc(F)c(F)c(F)c3)c2CCN1C(=O)c1cccn2nccc12` [Example 227, (S)-(2,7-Dimethyl-3-(3,4,5-trifluorophenyl)-2,4,5,7-tetrahydro-6H-pyrazolo[3,4-c]pyridin-6-yl)(pyrazolo[1,5-a]pyridin-4-yl)methanone], the IC50 was 9.51 nM.

In turn, `Cn1nc2c(c1-c1ccccc1)CCN(C(=O)c1cccc3sccc13)C2` [Example 38, Benzo[b]thiophen-4-yl(2-methyl-3-phenyl-2,4,5,7-tetrahydro-6H-pyrazolo[3,4-c]pyridin-6-yl)methanone] gave an IC50 of 68 nM.

For `C[C@H]1c2nn(C)c(-c3cc(F)c(F)c(F)c3)c2CCN1C(=O)c1cc(F)cc(-n2nccn2)c1` [Example 284, [(7S)-2,7-Dimethyl-3-(3,4,5-trifluorophenyl)-5,7-dihydro-4H-pyrazolo[3,4-c]pyridin-6-yl]-[3-fluoro-5-(triazol-2-yl)phenyl]methanone], the IC50 worked out at 15.6 nM.
